Reference: ChEMBL document CHEMBL3232863, “Small molecule disruptors of the glucokinase-glucokinase regulatory protein interaction: 3. Structure-activity relationships within the aryl carbinol region of the N-arylsulfonamido-N'-arylpiperazine series” (J Med Chem, 2014)

Columns and labels:
[1] = (§1) Oral bioavailability in Sprague-Dawley rat at 10 mg/kg; type: ADME, organism-based; conditions: Sprague-Dawley, in vivo
[2] = (§2) AUC in Sprague-Dawley rat at 10 mg/kg, po; type: ADME, organism-based, Plasma; design: dose 10 mg/kg, route oral; conditions: Sprague-Dawley, plasma
[3] = Oral bioavailability in C57BL/6 mouse at 10 mg/kg; type: ADME, organism-based; conditions: in vivo
[4] = AUC in C57BL/6 mouse at 10 mg/kg, po; type: ADME, organism-based; design: dose 10 mg/kg, route oral; conditions: plasma
[5] = Cmax in C57BL/6 mouse at 10 mg/kg, po; type: ADME, organism-based; design: dose 10 mg/kg, route oral; conditions: in vivo
[6] = Tmax in C57BL/6 mouse at 10 mg/kg, po; type: ADME, organism-based; design: dose 10 mg/kg, route oral; conditions: in vivo
[7] = tested on: Rattus norvegicus; experiment: as §1; type: ADME, organism-based; conditions: in vivo
[8] = tested on: Rattus norvegicus; experiment: as §2; type: ADME, organism-based, Plasma; design: dose 10 mg/kg, route oral; conditions: in vivo

Row | SMILES | bioavailability [1] [%] | AUC [2] [µM·h] | bioavailability [3] [%] | AUC [4] [µM·h] | Cmax [5] [µM] | Tmax [6] [h] | F [7] [%] | AUC [8] [µM·h]
1 | CC#C[C@H]1CN(S(=O)(=O)c2ccc(N)nc2)CCN1c1ccc(S(N)(=O)=O)cc1 | 5 | 0.26 |  |  |  |  |  | 
2 | CC#C[C@H]1CN(S(=O)(=O)c2ccc(N)nc2)CCN1c1ccc([C@@](C)(O)C(F)(F)F)cn1 | 47 | 28.4 | 47 | 37 | 9.71 | 0.25 |  | 
3 | CC#C[C@H]1CN(S(=O)(=O)c2ccc(N)nc2)CCN1c1ccc([C@](O)(CO)C(F)(F)F)cc1 | 48 | 7.1 |  |  |  |  |  | 
4 | CC#C[C@H]1CN(S(=O)(=O)c2ccc(N)nc2)CCN1c1ccc([S@](=N)(=O)C(F)(F)F)cc1 | 51 | 25.3 | 53 | 362 | 46.6 | 1 |  | 
5 | CC#C[C@H]1CN(S(=O)(=O)c2ccc(N)nc2)CCN1c1ccc(C(O)(C(F)(F)F)C(F)(F)F)cc1 |  | 20 |  | 64.8 | 5.82 | 5 |  | 
6 | CC#C[C@H]1CN(S(=O)(=O)c2ccc(N)nc2)CCN1c1ccc(S(=O)(=O)NC)cc1 |  |  |  |  |  |  | 1.5 | 0.03
